“Also recorded” adds a separate entry of the source. Read-outs that look alike come from different tables or passages of the source.
Experiments:
[1] = molecular target: T1, 5-HT1A receptors (Homo sapiens, UniProt P08908); experiment: 5-HT1A receptor affinity (Schipper et al., 1991); type: binding; conditions: for ΔpKi for 5-HT1A and D2 receptors: based on Ki values of Schipper et al.
T1 sequence (P08908 1-422): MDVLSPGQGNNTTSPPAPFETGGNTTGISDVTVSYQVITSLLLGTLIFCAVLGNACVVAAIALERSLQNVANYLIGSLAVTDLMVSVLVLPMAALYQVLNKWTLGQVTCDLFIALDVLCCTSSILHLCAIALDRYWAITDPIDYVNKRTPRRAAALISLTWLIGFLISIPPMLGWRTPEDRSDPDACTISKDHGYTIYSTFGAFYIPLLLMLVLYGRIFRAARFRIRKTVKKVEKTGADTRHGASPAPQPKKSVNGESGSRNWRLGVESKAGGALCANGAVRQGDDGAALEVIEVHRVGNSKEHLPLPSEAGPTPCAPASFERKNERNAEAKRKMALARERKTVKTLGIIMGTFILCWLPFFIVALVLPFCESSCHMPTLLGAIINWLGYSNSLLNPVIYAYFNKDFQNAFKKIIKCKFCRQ

[2] = molecular target: T1, 5-HT1A receptors; conditions: proportion of maximal inhibition of forskolin-stimulated cAMP relative to 5-HT; Koek et al., 1998; cited from earlier work
[3] = molecular target: 5-HT1B receptors; conditions: Schipper et al., 1991; Boddeke et al., 1992; cited from earlier work
[4] = molecular target: T1, 5-HT1A receptors; experiment: 5-HT1A receptor affinity (Koek et al., 1998); type: binding; conditions: from pKi values of Koek et al.
[5] = molecular target: T2, dopamine D2 receptors (Homo sapiens, UniProt P14416); conditions: Schipper et al., 1991; cited from earlier work
[6] = system: wild-type mice; experiment: Open-field locomotor activity, wild-type mice; type: in vivo
Excerpt: (§1) Heterozygote coloboma mice were originally purchased from The Jackson Laboratory (Bar Harbor, Me.) and were bred and maintained in our colony. In the current study, mutant mice and wild-type littermates, all aged 8 to 10 weeks, were used. Animals were divided into 4 groups: mutant/drug-treatment, mutant/vehicle-control, wild-type/drug-treatment, wild-type/vehicle-control (n=4-13 per group). Age and gender were balanced among groups. All animals were housed as littermates (2-4 mice per cage) and were maintained on ad libitum food and water with a 12 hr light/dark cycle.
(§2) The Open-field (OF) test was performed under normal lighting conditions (400 lux). Mice (Cm/+, WT) were brought into the experimental room and allowed at least 1 hr of acclimation. […] Each mouse was then placed into an OF arena (27×27×20 cm) with an infrared beam array system (Med Associates, St. Albans, Vt.) that automatically monitored the animal's activity. Four animals of matching genotype and treatment were tested at one time. The test session lasted 40 min and animals were returned to the home cage at the end of the session. Test measures included locomotion (distance traveled in cm) and number of center entries (zone crossings).

[7] = molecular target: α1 adrenergic receptors; conditions: Schipper et al., 1991; cited from earlier work
[8] = molecular target: T2, dopamine D2 receptors; experiment: Dopamine D2 receptor affinity (Schipper et al., 1991); type: binding; conditions: converted from Ki of Schipper et al., read-out: pKi for D2 receptors (converted)
[9] = system: mice (C57BL/6J; C3H); experiment: Peak procedure (peak interval procedure, PIP); type: in vivo; conditions: for effect on performance (relative response rate curve) in PIP 30 s task: C57BL/6J mice, vs saline
Method: The peak procedure is a behavioral model designed to assess an animal's ability to learn an appropriate time period in which to perform a task and a time period in which the animal will be rewarded if the task is performed. The model provides information concerning excitatory and inhibitory components of behavior, as subjects must respond to perform a task when appropriate and stop responding in an “empty trial” when time for reward has elapsed and the reward has not been delivered. The task is sensitive to conditions where there is a failure in inhibitory mechanisms, such as seems to be the case for ADHD (Pliszka et al., Biol. Psychiatry, 48:238-46, 2000).
In the peak procedure, mice are trained to work for food that is delivered at the same time in each trial, but withdrawn in some unreinforced trials. Typically, the response rate increases up to a maximum around the reinforcement time, and then decreases to a low toward the end of the trial. The shape of the response rate indicates whether the animal is sensitive to the time of reinforcement. To be able to perform well in this model, the animals need to be able to learn several tasks. First, the animal must make an association between a response (lever pressing, nose poking or key pecking) and the delivery of reward. Second, the animal must be able to perceive and remember time. Third, the animal must act on its remembered time by starting and then stopping or inhibiting the response. Fourth, the animal must be able to compare the elapsed time in the trials with its remembered time to reinforcement. In each trial the time clock is reset, and the animal must reset its internal “counter,” i.e., at the beginning of each trial animals should start “timing” the trial time from zero. The ability to perform this task depends on the animal's working memory. Starting the internal clock at the beginning of the trial requires that the animal pays attention to the trial start time, which could be in the form of a visual signal, or as reported herein, the introduction of a lever into the experimental chamber. […] Accuracy is measured by looking at the shape of the response function; therefore, if the response function is sharper and centered on the reinforcement time it supports a conclusion that attentional processes have been heightened.
All mice were food deprived to a target weight of 85-90% of their free-feeding weight before training began. Mice were fed approximately 10% of their body weight until they reached their target weight. On average, 1 week of food deprivation was sufficient to reach the target weight. During this time, all subjects were fed Bioserve 500 mg precision dustless pellets as their daily ration. They were exposed to Carnation™ evaporated milk in the home cage to avoid a possible neophobic reaction to the reinforcement. Subjects were given 1-week “vacations” every 4 to 6 weeks at which time they were allowed free access to food and a new free-feeding body weight baseline was recorded. Water was continuously available in the cage.
Once deprived, animals were trained to lever-press in an operant chamber using ultrasensitive levers. Sixteen mouse operant chambers (Med Associates, Georgia, Vt.) were configured identically with two retractable ultra-sensitive levers, stimulus lights, and a dipper for delivery of condensed milk. A house light was placed on the opposite wall from the levers. Each chamber was placed in isolation cubicle. A fan provided white masking noise and adequate air.
Training and testing consisted of 1-h daily sessions. Subjects started on a concurrent fixed ratio 1-fixed time 1 min (FR 1-FT 1) schedule of reinforcement in which the house light served as the discriminative stimulus. Food was delivered every 1 min but the delivery was immediate if the animal made a response. […] After no more than 1 week on this schedule, mice began training with a fixed-interval (FI) 10 s schedule in which all trials were separated by a 20 s, intertrial interval. […]

[10] = molecular target: T1, 5-HT1A receptors; conditions: Koek et al., 1998; cited from earlier work
[11] = molecular target: T1, 5-HT1A receptors; conditions: Schipper et al., 1991; cited from earlier work
[12] = system: rats; conditions: rats trained to discriminate flesinoxan (0.5 mg/kg i.p.) from saline; cited from earlier work
[13] = system: coloboma mutant (Cm) mice; experiment: Open-field locomotor activity, coloboma mutant mice; type: in vivo
Excerpt: as §1, §2

[14] = molecular target: 5-HT1D receptors; conditions: Schipper et al., 1991; cited from earlier work
[15] = molecular target: D2 receptors (Homo sapiens, UniProt P14416); conditions: Koek et al., 1998; cited from earlier work
[16] = molecular target: other neurotransmitter receptors; conditions: Schipper et al., 1991; cited from earlier work
[17] = system: Cm mutant mice; conditions: Cm mutant mice (methylphenidate: both control and Cm mutants); Hess et al., 1996; cited from earlier work
[18] = system: other 5-HT receptor subtypes or other neurotransmitter receptors; conditions: reported; cited from earlier work
[19] = C3H mice, 0.03 mg/kg, vs vehicle
[20] = C3H mice, 0.1 mg/kg, vs vehicle

Chain of D2 receptors (P14416 whole entry): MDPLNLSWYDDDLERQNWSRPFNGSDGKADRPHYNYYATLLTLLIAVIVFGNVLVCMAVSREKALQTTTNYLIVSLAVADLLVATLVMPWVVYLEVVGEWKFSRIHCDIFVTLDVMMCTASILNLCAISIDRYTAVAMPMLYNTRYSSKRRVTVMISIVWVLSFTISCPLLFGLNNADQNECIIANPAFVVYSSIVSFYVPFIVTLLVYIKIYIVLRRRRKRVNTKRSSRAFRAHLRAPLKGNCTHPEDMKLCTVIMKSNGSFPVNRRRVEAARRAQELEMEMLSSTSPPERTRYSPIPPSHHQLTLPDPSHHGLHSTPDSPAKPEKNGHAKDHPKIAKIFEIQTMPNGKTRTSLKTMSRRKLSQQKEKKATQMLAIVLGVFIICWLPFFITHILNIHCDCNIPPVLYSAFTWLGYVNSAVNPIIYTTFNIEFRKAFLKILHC
T2 sequence (P14416 whole entry): as above

Cl.O=C(NCCN1CCN(c2cccc3c2OCC(CO)O3)CC1)c1ccc(F)cc1 (single isomer, unassigned; (+)) [flesinoxan, (+)(4-fluoro-N-[2-[4-[2-(hydroxymethyl)-1,4-benzodioxane-5-yl] 1-piperazinyl]ethyl]benzamide) HCl]
ΔpKi for 5-HT1A and D2 receptors [1]: about 1.92
Ki ([1]; converted from Ki of Schipper et al.): 1.7 nM
intrinsic activity at the 5-HT1A receptor [2]: 0.93
Ki [3]: 810 nM
ΔpKi for 5-HT1A and D2 receptors [4]: 1.86
Ki [5]: 140 nM
locomotion (distance traveled or zones crossed) ([6]; 0.3 mg/kg i.p.): only marginally affected locomotion
Ki [7]: 380 nM
Ki [8]: 141 nM
effect on response curve in PIP 30 s [9, 19]: the peaks of the response curve is higher and the curves are sharper than vehicle
effect on response curve in PIP 45 s [9, 19]: evident but less robust
effect on performance curves in PIP 30 s and PIP 45 s [9, 20]: more comparable to saline curve
pKi for 5-HT1A receptors [10]: 8.91
Ki [11]: 1.7 nM
generalization to stimuli of α1 adrenoceptor antagonist, α2 adrenoceptor agonist, dopamine receptor agonist or antagonists [12]: did not generalize
reduction in locomotor activity compared to vehicle-treated Cm mutants ([13]; Cm mutant mice, 0.3 mg/kg i.p.): more than 75%
total ambulatory distance ([13]; Cm mutant mice, 0.3 mg/kg i.p. 30 min before 40 min open-field session, vehicle 6112±1621): 1462±411 centimeters
frequency of zone crossings ([13]; Cm mutant mice, 0.3 mg/kg i.p., overall effect not statistically significant (p=0.0683)): decreased the frequency of zone crossings in Cm mutants to within the range of saline-treated wild-type mice
Ki [14]: 160 nM
pKi for D2 receptors [15]: 7.05

CCCN(CCC)C1Cc2c[nH]c3ccc(C(N)=O)c(c23)C1 (single isomer, unassigned; (-)) [LY228729, (−)-4(dipropylamino)-1,3,4,5-tetrahydrobenz-[c,d,]indole-6-carboxamide]
intrinsic activity at the 5-HT1A receptor [2]: 0.88

CCCN(CCC)C1CCc2cccc(O)c2C1 (stereo not drawn) [8-OH-DPAT, 8-hydroxy-2(di-n-propylamino)tetralin]
ΔpKi for 5-HT1A and D2 receptors [1]: 2.94
total ambulatory distance ([6]; 0.1 mg/kg, vehicle 7720±2726, non-significant): 4517±1599 centimeters
Ki [7]: 380 nM
effect on performance curves in PIP 30 s and PIP 45 s ([9]; C3H mice, 0.01 mg/kg, vs vehicle, 0.01 mg/kg): not significantly different from the saline curve; also recorded: slightly disruptive
effect on performance curves in PIP 30 s and PIP 45 s [9, 20]: not significantly different from the saline curve
Ki [16]: > 1000 nM
attenuation of total ambulatory distance compared to vehicle ([13]; Cm mice, 0.1 mg/kg): ~50%
total frequency of zone crossings ([13]; Cm mice, 0.1 mg/kg, p=0.030): significantly decreased
total ambulatory distance ([13]; Cm mice, 0.1 mg/kg, vehicle 14702±2611, not statistically significant): 7813±2606 centimeters
attenuation of Cm hyperactivity ([13]; Cm mice, lower doses 0.001 or 0.01 mg/kg, data not shown): no significant attenuation
Ki [14]: 930 nM

Cn1c(=O)cnn(CCCCN2CCN(c3ncccn3)CC2)c1=O [F11440, 4-methyl-2-(4-[4-(pyrimidin-2-yl)-piperazino]-butyl)-2H,4H-1,2,4-triazin-3,5-dione]
intrinsic activity at the 5-HT1A receptor [2]: 1.0
ΔpKi for 5-HT1A and D2 receptors [4]: 2.58
pKi for 5-HT1A receptors [10]: 8.33
pKi for D2 receptors [15]: 5.75

COc1ccc2cccc(N3CCN(CCNC(=O)c4ccc(F)cc4)CC3)c2c1 [S14506, 1(2-[4-fluorobenzoylamino]ethyl)-4-(7-methoxynaphtyl)piperazine]
intrinsic activity at the 5-HT1A receptor [2]: 0.95

CC(N)Cc1ccccc1 (stereo not drawn) [amphetamine]
effect on hyperactivity / locomotor activity [17]: normalizes the hyperactivity
total distance traveled ([6]; 4 mg/kg i.p. 30 min before 40 min open-field session, saline 3116±338): 11657±2370 centimeters
effect on performance (relative response rate curve) in PIP 30 s task ([9]; 1 mg/kg): positive effects
effect on performance (relative response rate curve) in PIP 30 s task ([9]; 2 mg/kg): positive effects
effect on performance (relative response rate curve) in PIP 30 s task ([9]; 4 mg/kg): disrupted performance
total distance traveled ([13]; Cm mutant mice, 4 mg/kg i.p. 30 min before 40 min open-field session, saline 18386±6387): 5966±1938 cm

O=C1CC2(CCCC2)CC(=O)N1CCCCN1CCN(c2ncccn2)CC1 [buspirone]
ΔpKi for 5-HT1A and D2 receptors [1]: 0.44

CC1(C)CC(=O)N(CCCCN2CCN(c3ncccn3)CC2)C(=O)C1 [gepirone]
intrinsic activity at the 5-HT1A receptor [2]: 0.77

Clc1cnn(CCCCN2CCN(c3ncccn3)CC2)c1 [lesopitron, 2-[4-[4-(4-chloro-1H-pyrazol-1-yl)-butyl]-1-piperazinyl]pyrimidine]
intrinsic activity at the 5-HT1A receptor [2]: 0.70
affinity for other 5-HT receptor subtypes or other neurotransmitter receptors [18]: virtually no affinity

COC(=O)C(c1ccccc1)C1CCCCN1 (stereo not drawn) [methylphenidate]
effect on hyperactivity / locomotor activity [17]: increases locomotor activity in a dose-dependent manner

— US20050004105A1, “Treatment for a attention-deficit hyperactivity disorder” (priority 2003, published 2005)
